Assays:
Assay in all cases: Bliss excess, mean over the matrix (fraction); higher = more synergy
EW-3 (Ewing's Sarcoma) = test system: EW-3 (Ewing's Sarcoma)
Method in brief: (§1)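 Bliss excess equals the observed combination effect minus the expected value EA + EB − EA·EB, where EA and EB are the effects of each agent alone. Combination Emax is the second-highest inhibition within the matrix. Inhibition was scaled from CellTiter-Glo 2.0 luminescence, with 0 set by vehicle wells and 1 by blank wells, after 72 hours of two-drug dosing of cells plated in 1536-well plates.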

[1] = test system: KP-2 (Pancreatic Carcinoma)
Method in brief: as §1

[2] = test system: SCC-3 (B-Cell Non-Hodgkin's Lymphoma)
Method in brief: as §1

[3] = test system: DG-75 (Burkitt's Lymphoma)
Method in brief: as §1

[4] = test system: MFE-319 (Endometrial Carcinoma)
Method in brief: as §1

[5] = test system: JHH-7 (Hepatocellular Carcinoma)
Method in brief: as §1

A704 (Kidney Carcinoma) = test system: A704 (Kidney Carcinoma)
Method in brief: as §1

[6] = test system: OCUB-M (Breast Carcinoma)
Method in brief: as §1

[7] = test system: KU-19-19 (Bladder Carcinoma)
Method in brief: as §1

[8] = test system: KLE (Endometrial Carcinoma)
Method in brief: as §1

[9] = test system: TGBC11TKB (Gastric Carcinoma)
Method in brief: as §1

U-87-MG (Glioblastoma) = test system: U-87-MG (Glioblastoma)
Method in brief: as §1

[10] = test system: HC-1 (Other Blood Carcinomas)
Method in brief: as §1

[11] = test system: HuP-T3 (Pancreatic Carcinoma)
Method in brief: as §1

SMILES	Bliss excess (EW-3 (Ewing's Sarcoma))	Bliss excess [1]	Bliss excess [2]	Bliss excess [3]	Bliss excess [4]	Bliss excess [5]	Bliss excess (A704 (Kidney Carcinoma))	Bliss excess [6]	Bliss excess [7]	Bliss excess [8]	Bliss excess [9]	Bliss excess (U-87-MG (Glioblastoma))	Bliss excess [10]	Bliss excess [11]
CC1(C)CCC(CN2CCN(c3ccc(C(=O)NS(=O)(=O)c4ccc(NCC5CCOCC5)c([N+](=O)[O-])c4)c(Oc4cnc5[nH]ccc5c4)c3)CC2)=C(c2ccc(Cl)cc2)C1 [Venetoclax] + C=CCn1c(=O)c2cnc(Nc3ccc(N4CCN(C)CC4)cc3)nc2n1-c1cccc(C(C)(C)O)n1 [AZD1775] (first compound max 1 µM, partner max 1 µM)	0.0735	-0.0068	-0.0024	-0.0575	-0.0129	0.0071	-0.0283	0.0062	-0.023	-0.0043	-0.0171	-0.0456	0.0665	-0.112
CC1(C)CCC(CN2CCN(c3ccc(C(=O)NS(=O)(=O)c4ccc(NCC5CCOCC5)c([N+](=O)[O-])c4)c(Oc4cnc5[nH]ccc5c4)c3)CC2)=C(c2ccc(Cl)cc2)C1 [Venetoclax] + C[C@@H]1COCCN1C2=NC(=NC(=C2)C3(CC3)[S@](=N)(=O)C)C4=C5C=CNC5=NC=C4 [AZD6738] (first compound max 1 µM, 7x7, partner max 10 µM)	0.0185	-0.0225	0.013	-0.0021	-0.0494	-0.0318	-0.0758	-0.0107	-0.0844	-0.0538	-0.0273	-0.0487	0.0289	-0.0201
CC(=O)Nc1cccc(-n2c(=O)n(C3CC3)c(=O)c3c(Nc4ccc(I)cc4F)n(C)c(=O)c(C)c32)c1 [Trametinib] + Cc1nc(-c2cn3c(n2)-c2ccc(-c4cnn(C(C)(C)C(N)=O)c4)cc2OCC3)n(C(C)C)n1 [Taselisib] (first compound max 1 µM, 7x7, partner max 10 µM)	0.046	0.192	0.206	0.0419	0.0681	0.0427	-0.0243	-0.0123	0.0597	-0.0509	0.329	0.0848	0.12	0.118
Cn1cnc2c(F)c(Nc3ccc(Br)cc3Cl)c(C(=O)NOCCO)cc21 [Selumetinib] + CCN(CCO)CCCOc1ccc2c(Nc3cc(CC(=O)Nc4cccc(F)c4)[nH]n3)ncnc2c1 [AZD2811] (first compound max 10 µM, 7x7, partner max 1 µM)	-0.0112	0.0449	0.11	0.0193	-0.0736	-0.0518	-0.058	-0.0959	0.0258	-0.0456	0.0127	-0.0443	0.0547	-0.0526
C[C@@H](c1ccc2nccn2c1)n1nnc2ncc(-c3cnn(C)c3)nc21 [Savolitinib] + CC1(C)CCC(CN2CCN(c3ccc(C(=O)NS(=O)(=O)c4ccc(NCC5CCOCC5)c([N+](=O)[O-])c4)c(Oc4cnc5[nH]ccc5c4)c3)CC2)=C(c2ccc(Cl)cc2)C1 [Venetoclax] (first compound max 1 µM, 7x7, partner max 1 µM)	0.0364	-0.0518	-0.0166	-0.0021	-0.0764	-0.0342	-0.0516	-0.0371	-0.0468	-0.111	-0.0367	-0.0699	-0.0824	-0.0912
COc1cccc(OCCCN)c1-c1cc(Nc2cnc(C#N)cn2)n[nH]1 [Prexasertib] + CCc1c2c(nc3ccc(O)cc13)-c1cc3c(c(=O)n1C2)COC(=O)[C@]3(O)CC [SN-38] (first compound max 1 µM, 7x7, partner max 0.3 µM)	-0.0732	0.0983	0.0056	0.0019	0.0161	0.116	-0.0496	0.258	0.0024	0.0285	0.0252	-0.092	-0.0005	0.0335
CC(=O)c1c(C)c2cnc(Nc3ccc(N4CCNCC4)cn3)nc2n(C2CCCC2)c1=O [Palbociclib] + Cc1c2c(nn1C)CSCc1cc(n(C)n1)CSc1cc(c3ccccc3c1)OCCCc1c(C(=O)O)n(C)c3c-2c(Cl)ccc13 [AZD5991] (first compound max 10 µM, 7x7, partner max 1 µM)	-0.0003	-0.0445	0.0284	0.0332	-0.111	-0.0346	-0.0629	-0.0004	-0.0215	-0.082	-0.0473	-0.0527	-0.152	-0.072
CC1(C)CCC(CN2CCN(c3ccc(C(=O)NS(=O)(=O)c4ccc(NCC5CCOCC5)c([N+](=O)[O-])c4)c(Oc4cnc5[nH]ccc5c4)c3)CC2)=C(c2ccc(Cl)cc2)C1 [Venetoclax] + COc1cc(Nc2ncc3c(n2)-c2ccc(Cl)cc2C(c2c(F)cccc2OC)=NC3)ccc1C(=O)O [Alisertib] (first compound max 1 µM, 7x7, partner max 10 µM)	0.079	-0.0293	0.0308	0.028	-0.0256	-0.0134	-0.0913	0.111	-0.0086	-0.0709	0.0709	-0.087	0.18	-0.0527
NC1(C(=O)N[C@@H](CCO)c2ccc(Cl)cc2)CCN(c2ncnc3[nH]ccc23)CC1 [Capivasertib] + CC(=O)c1c(C)c2cnc(Nc3ccc(N4CCNCC4)cn3)nc2n(C2CCCC2)c1=O [Palbociclib] (first compound max 10 µM, 7x7, partner max 10 µM)	0.0062	-0.0261	0.0001	0.0406	-0.0339	-0.0238	-0.0413	-0.0127	0.0041	-0.0214	-0.0358	-0.0097	-0.0705	-0.0457
CN(C)CCCOc1ccc(-c2ccc3ncc4c(c3c2)n(C2CCOCC2)c(=O)n4C)cn1 [AZD0156] + O=C(c1cc(Cc2n[nH]c(=O)c3ccccc23)ccc1F)N1CCN(C(=O)C2CC2)CC1 [Olaparib] (first compound max 3 µM, partner max 3 µM)	0.13	-0.0072	0.28	0.0614	0.0188	0.117	0.026	-0.0091	0.0781	-0.0506	-0.0984	0.0207	0.134	-0.0247
CC1(C)CCC(CN2CCN(c3ccc(C(=O)NS(=O)(=O)c4ccc(NCC5CCOCC5)c([N+](=O)[O-])c4)c(Oc4cnc5[nH]ccc5c4)c3)CC2)=C(c2ccc(Cl)cc2)C1 [Venetoclax] + CN(C)CCCOc1ccc(-c2ccc3ncc4c(c3c2)n(C2CCOCC2)c(=O)n4C)cn1 [AZD0156] (first compound max 1 µM, 7x7, partner max 1 µM)	0.032	-0.0193	0.0194	-0.0123	0.0513	-0.032	-0.0717	0.0289	-0.0167	-0.145	-0.0022	-0.0163	-0.0244	-0.0925
CN(CCO)CC[C@H](CSc1ccccc1)Nc1ccc(S(=O)(=O)NC(=O)c2ccc(N3CCC([C@@H](O)c4ccccc4-c4ccc(Cl)cc4)CC3)cc2)cc1S(=O)(=O)C(F)(F)F [AZD4320] + C1CN(CCC1(C(=O)N[C@@H](CCO)C2=CC=C(C=C2)Cl)N)C3=NC=NC4=C3C=CN4 [Capivasertib] (first compound max 1 µM, 7x7, partner max 3 µM)	-0.0687	-0.0583	-0.0506	-0.0093	-0.0081	-0.0256	-0.1	-0.0174	-0.0394	-0.0467	-0.0398	-0.045	-0.0058	-0.0678
COc1cc2ncnc(Nc3ccc(F)c(Cl)c3)c2cc1OCCCN1CCOCC1 [Gefitinib] + CC(C)n1c(=O)n(C)c2cnc3cc(F)c(-c4ccc(OCCCN5CCCCC5)nc4)cc3c21 [AZD1390] (first compound max 10 µM, 7x7, partner max 0.3 µM)	-0.0347	-0.0438	-0.0418	-0.0333	-0.0805	-0.0451	-0.0325	-0.0537	-0.0831	-0.0548	-0.0382	-0.0771	-0.127	-0.0595
NC1(C(=O)N[C@@H](CCO)c2ccc(Cl)cc2)CCN(c2ncnc3[nH]ccc23)CC1 [Capivasertib] + Cn1cnc2c(F)c(Nc3ccc(Br)cc3Cl)c(C(=O)NOCCO)cc21 [Selumetinib] (first compound max 10 µM, 7x7, partner max 10 µM)	-0.0091	0.0094	0.0627	0.0439	0.0088	-0.0455	-0.0098	0.0081	-0.0364	-0.011	0.0387	-0.0316	0.0123	-0.0559
CC(=O)c1c(C)c2cnc(Nc3ccc(N4CCNCC4)cn3)nc2n(C2CCCC2)c1=O [Palbociclib] + CC1(C)CCC(CN2CCN(c3ccc(C(=O)NS(=O)(=O)c4ccc(NCC5CCOCC5)c([N+](=O)[O-])c4)c(Oc4cnc5[nH]ccc5c4)c3)CC2)=C(c2ccc(Cl)cc2)C1 [Venetoclax] (first compound max 10 µM, 7x7, partner max 1 µM)	0.0792	-0.0425	0.0411	-0.0084	-0.0586	-0.0474	-0.0575	-0.0276	-0.0135	-0.0355	-0.0901	-0.054	0.0552	-0.021
Cc1c2c(nn1C)CSCc1cc(n(C)n1)CSc1cc(c3ccccc3c1)OCCCc1c(C(=O)O)n(C)c3c-2c(Cl)ccc13 [AZD5991] + C[C@@H]1COCCN1C2=NC(=NC(=C2)C3(CC3)[S@](=N)(=O)C)C4=C5C=CNC5=NC=C4 [AZD6738] (first compound max 1 µM, 7x7, partner max 10 µM)	0.0207	0.0446	0.0538	-0.0464	0.05	0.0642	-0.0522	0.0339	-0.0013	-0.0021	-0.0218	-0.0241	0.0639	-0.0053
CC1(C)CCC(CN2CCN(c3ccc(C(=O)NS(=O)(=O)c4ccc(NCC5CCOCC5)c([N+](=O)[O-])c4)c(Oc4cnc5[nH]ccc5c4)c3)CC2)=C(c2ccc(Cl)cc2)C1 [Venetoclax] + Cn1cnc2c(F)c(Nc3ccc(Br)cc3Cl)c(C(=O)NOCCO)cc21 [Selumetinib] (first compound max 1 µM, 7x7, partner max 3 µM)	-0.0413	-0.0177	0.028	-0.06	-0.0034	-0.0442	-0.0299	-0.0137	0.0087	-0.0704	0.0049	-0.0889	0.0509	-0.0403
